Source: patent publication US20090304654A1, “METHODS FOR ISOLATING ADIPOSE-DERIVED STEM CELLS AND THERAPEUTIC USE THEREOF” (REGENTS OF THE UNIVERSITY OF CALIFORNIA, priority 2008, published 2009)

Tested on: RADSC-1 cells
Experiment: Endothelial-inducing factors: LDL-uptake and endothelial markers of ADSC in subtraction/addition media and with FGFR inhibitor
Format: cell-based, rat
Conditions: for LDL-uptake ability on omission of the factor from EGM2: one week in subtraction EGM2; for LDL-uptake ability in EBM2 supplemented with the factor: one week in addition media
Description: RADSC-1 cells were grown in fully or partially supplemented EGM2 and then assayed for LDL-uptake. Each partially supplemented EGM2 is indicated by the omitted factor; for example, “−FGF” denotes EGM2 without FGF2. Experiments were repeated 3 times.
RADSC-1 cells were grown in EGM2, EBM2, or EBM2 supplemented with the indicated factor, and then assayed for LDL-uptake. Experiments were repeated 3 times.
RADSC-1 cells were grown in EGM2 or EBM2 supplemented with FGF2 and vitamin C in the presence or absence of FGFR inhibitor PD173074. The cells were then assayed for LDL-uptake. Red color indicates the presence of LDL, which was in a conjugated form with the red fluorescence dye DiI. RADSC-1 cells were also grown in VEGF/vitamin C-supplemented EBM2 for the purpose of excluding the involvement of VEGF signaling, as PD173074 is known to have a weak inhibitory effect on VEGF receptor. Experiments were repeated 3 times.
EGM2 medium is supplied by the manufacturer in the form of a basal medium (EBM2) and individual vials of supplemental factors. […] Specifically, we prepared “subtraction” EGM2 media by omitting one supplemental factor at a time.
The above experiments identified FGF2 as the only growth factor required for the induction of ADSC's LDL-uptake ability. We then tested whether FGF2 was able to induce the expression of additional endothelial characteristics. RADSC-1 cells were grown in DMEM, EGM2, or EBM2 supplemented with FGF2 and vitamin C. They were then stained for endothelial markers CD31, vWF, and eNOS, and tested for tube formation.
In the absence of PD173074 (with the addition of solvent only), cells grown in either the completely supplemented EGM2 or the FGF2/vitamin C-supplemented EBM2 acquired the LDL-uptake ability (FIG. 23).

| Compound | acquisition of LDL-uptake ability in the presence of inhibitor (cells in EGM2 or FGF2/vitamin C-supplemented EBM2) | LDL-uptake ability on omission of the factor from EGM2 | LDL-uptake ability in EBM2 supplemented with the factor |
| --- | --- | --- | --- |
| CCN(CC)CCCCNc1ncc2cc(-c3cc(OC)cc(OC)c3)c(NC(=O)NC(C)(C)C)nc2n1 [PD173074] | unable to do so | – | – |
| C[C@]12CCC(=O)C=C1CC[C@@H]1[C@@H]2[C@@H](O)C[C@@]2(C)[C@H]1CC[C@]2(O)C(=O)CO [hydrocortisone] | – | essentially no effect | – |
| O=C1O[C@H]([C@@H](O)CO)C(O)=C1O [vitamin C] | – | greatly diminished LDL-uptake ability | still somewhat effective, but at a much reduced level |
| EGF: epidermal growth factor, supplement of EGM2 (NSDSECPLSHDGYCLHDGVCMYIEALDKYACNCVVGYIGERCQYRDLKWWELR; UniProt P01133 971-1023, looked up) | – | essentially no effect | – |
| FGF2: growth factor supplement of EGM2 | – | greatly diminished LDL-uptake ability | still effective, albeit at a reduced level |
| VEGF | – | essentially no effect | – |
| heparin | – | essentially no effect | – |
